Assay results as given in patent publication US12595269B2, “Morpholine-like monoamine releasers” (Solvonis Therapeutics Ireland Holdings Limited, priority 2022, dated 2026).
Values after ≈ are worked out from the molar mass of the structure shown.

Tests used:
[1] = Solubility in PBS pH 7.4 by HPLC-UV; type: physicochemical; conditions: PBS buffer, aqueous buffer, kinetic from dmso stock; PBS pH 7.4, about 2% DMSO, 120 minutes at room temperature
Procedure: Methods and Procedure: This study was designed in compliance with previously described procedures to assure data integrity and adherence to GLP principles. Control compounds included ibuprofen as a reference for high solubility and progesterone as a reference for low solubility. Stock solutions of compounds described herein (20 mM) were prepared in DMSO, on the same day of the experiment when feasible.
These solutions were compared with an external standard solution of known concentration via HPLC-UV To prepare the standard, 4 μL from a 20 mM compound stock solution was added to DMSO in a vial/well, and mixed with shaking at room temperature for 10 minutes. […]
Concentrations were determined by comparing UV absorbance of the test solution and of the known standard solution following HPLC separation using a generic fast gradient method employing a DAD detector and UV detection at 230 and 254 nm. […] The solubility of each compound was expressed as the ratio of compound amount in the sample test solution to the amount of compound in the standard solution, calculated from the equation “solubility of sample=peak area of sample/peak area of standard×concentration of standard.”

[2] = molecular target: T1, CYP1A2 (Homo sapiens, UniProt P05177); experiment: CYP450 inhibition, fluorescent probe, recombinant microsomes: CYP1A2; type: in vitro ADME
T1 construct: host or cells: recombinant microsomes
T1 sequence (P05177 1-516): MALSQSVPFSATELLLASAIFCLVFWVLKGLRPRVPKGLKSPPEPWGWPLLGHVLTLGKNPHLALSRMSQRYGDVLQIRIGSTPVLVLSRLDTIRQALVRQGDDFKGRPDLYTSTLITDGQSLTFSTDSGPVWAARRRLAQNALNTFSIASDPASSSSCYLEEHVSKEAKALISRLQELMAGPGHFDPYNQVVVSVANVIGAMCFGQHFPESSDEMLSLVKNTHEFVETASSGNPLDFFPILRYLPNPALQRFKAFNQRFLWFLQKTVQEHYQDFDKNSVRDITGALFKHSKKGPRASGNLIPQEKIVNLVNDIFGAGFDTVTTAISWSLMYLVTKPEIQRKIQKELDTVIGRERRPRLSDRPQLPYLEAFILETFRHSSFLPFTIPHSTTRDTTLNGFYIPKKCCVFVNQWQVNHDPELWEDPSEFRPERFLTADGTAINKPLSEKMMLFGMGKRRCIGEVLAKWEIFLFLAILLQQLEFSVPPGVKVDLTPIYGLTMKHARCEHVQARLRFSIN
Procedure: Methods and Procedure: The study was performed in agreement with previously described procedures to assure data integrity and adherence to GLP standards. Briefly, recombinant human CYP450 isoenzymes were used to metabolize pro-fluorescent probe substrates to fluorescent products. IC50 values determined from the effect of test compounds on the metabolism of these probe substrates were then used to determine inhibitory potency against CYP450 isoforms.
The test system was based on a three-step procedure with a “mix and read” format, where PGP-432,TI reaction and reading were performed at 37° C. […] Fluorescence was measured in kinetic mode (1 read/minutes for 10 minutes), and the fluorescence rate was calculated. […]
Microsomes were added to the buffer prior to the substrate addition. […] For fluorescence measurement, 10 μL/well of the test compounds were transferred from the compound plate to the assay plate using Biomek FX and the appropriate protocol. […]
10 μL/well of the cofactor was then added to the assay plate using the Multidrop before placing the assay plate in the plate reader EnVision to measure fluorescence. […]
Next, 10 μL/well from the compound plate was added and incubated for 10 minutes at 37° C. on a plate shaker, while a mixture of Vivid Substrate and Vivid NADP+ in Vivid CYP450 Reaction Buffer was prepared. […] Regarding data analysis, the inhibition effect is expressed as a percentage. […]

SMILES | solubility at 120 min [1] [µM] | IC50 at 10 min ([2]; human, recombinant microsomes expressing CYP1A2) [µM] | IC50 ([2]; recombinant human CYP1A2) [µM]
CNC(C)Cc1ccc2c(c1)OCO2 (stereo not shown) [MDMA, reference compound] | 386 (≈ 74.6 µg/mL) | 50 | –
Clc1ccc(C23CNC(CO2)C3)cc1Cl (stereo not shown) [522A, 1-(3,4-dichlorophenyl)-2-oxa-5-azabicyclo[2.2.1]heptane] | 384 (≈ 93.6 µg/mL) | – | > 50
